Measurements published in paper PMC12951562, “SH2scan: Mapping SH2 Domain-Ligand Binding Selectivity for Inhibitors and Degraders” (Journal of Medicinal Chemistry, 2026).
Read-outs that look alike come from different tables or passages of the source. Non-standard residues stand in square brackets, D forms with d. Residues, ends and D or L forms follow the SMILES beside them. *: point of attachment. pY = N[C@@H](Cc1ccc(OP(=O)(O)O)cc1)C(=O)O; Caffeoyl = O=C(/C=C/c1ccc(O)c(O)c1)*

Key:
Experiment in all cases: biochemical
Type in all cases: binding
RASA1(SH2dom.C-term.) = target: T1, RASA1(SH2dom.C-term.) (Homo sapiens, UniProt P20936); settings: for remaining activity at 10 µM: read-out: percent of DMSO vehicle control
T1 construct: SH2dom.C-term. denotes SH2 domain closest to C-terminus of protein; made in house; host or cells: HEK293 (transient transfection, unpurified extract)
T1 sequence (P20936 351-441 limits assumed): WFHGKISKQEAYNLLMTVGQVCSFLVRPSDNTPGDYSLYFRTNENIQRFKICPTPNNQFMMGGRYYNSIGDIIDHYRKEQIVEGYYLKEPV

DAPP1 = target: T2, DAPP1 (Homo sapiens, UniProt Q9UN19); settings: for remaining activity at 10 µM / percent of DMSO vehicle control at 10 µM: read-out: percent of DMSO vehicle control
T2 construct: the DNA-tagged SH2 domain concentrations used in this study were <0.1 nM; made in house; host or cells: HEK293 (transient transfection; unpurified extract)
T2 sequence (Q9UN19 35-129 limits assumed): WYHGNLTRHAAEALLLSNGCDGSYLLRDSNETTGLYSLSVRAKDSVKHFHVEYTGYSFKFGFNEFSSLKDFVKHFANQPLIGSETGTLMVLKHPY

TXK = target: T3, TXK (Homo sapiens, UniProt P42681); settings: for remaining activity at 10 µM: read-out: percent of DMSO vehicle control
T3 construct: made in house; host or cells: HEK293 (transient transfection), unpurified extract
T3 sequence (P42681 1-527): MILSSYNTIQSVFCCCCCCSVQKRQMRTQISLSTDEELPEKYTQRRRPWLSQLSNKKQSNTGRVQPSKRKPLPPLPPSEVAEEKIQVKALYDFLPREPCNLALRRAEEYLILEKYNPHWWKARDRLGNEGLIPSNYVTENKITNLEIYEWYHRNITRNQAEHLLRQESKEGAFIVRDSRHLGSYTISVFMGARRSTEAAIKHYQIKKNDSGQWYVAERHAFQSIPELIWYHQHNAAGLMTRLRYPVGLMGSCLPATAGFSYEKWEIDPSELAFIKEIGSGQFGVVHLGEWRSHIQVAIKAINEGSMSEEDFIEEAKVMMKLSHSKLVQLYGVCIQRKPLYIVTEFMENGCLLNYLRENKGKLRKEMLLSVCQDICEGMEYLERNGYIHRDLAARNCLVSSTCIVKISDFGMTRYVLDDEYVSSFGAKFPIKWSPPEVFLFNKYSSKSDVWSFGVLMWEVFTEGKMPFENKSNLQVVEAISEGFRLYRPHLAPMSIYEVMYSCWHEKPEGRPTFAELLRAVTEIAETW

PTPN6(SH2dom.N-term.) = target: T4, PTPN6(SH2dom.N-term.) (Homo sapiens, UniProt P29350); settings: for remaining activity at 10 µM: read-out: percent of DMSO vehicle control
T4 construct: SH2dom.N-term. denotes SH2 domain closest to N-terminus of protein; made in house; host or cells: HEK293 (transient transfection, unpurified extract)
T4 sequence (P29350 4-100 limits assumed): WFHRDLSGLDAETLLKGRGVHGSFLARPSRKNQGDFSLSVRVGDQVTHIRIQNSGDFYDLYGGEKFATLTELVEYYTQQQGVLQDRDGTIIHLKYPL

LNK (SH2B3) = target: T5, LNK (SH2B3) (Homo sapiens, UniProt Q9UQQ2); settings: for remaining activity at 10 µM: read-out: percent of DMSO vehicle control
T5 construct: the DNA-tagged SH2 domain concentrations used in this study were <0.1 nM; made in house; host or cells: HEK293 (transient transfection, unpurified extract)

VAV3 = target: T6, VAV3 (Homo sapiens, UniProt Q9UKW4); settings: for remaining activity at 10 µM / percent of DMSO vehicle control at 10 µM: read-out: percent of DMSO vehicle control
T6 construct: made in house; host or cells: HEK293 (transient transfection), unpurified extract
T6 sequence (Q9UKW4 1-847): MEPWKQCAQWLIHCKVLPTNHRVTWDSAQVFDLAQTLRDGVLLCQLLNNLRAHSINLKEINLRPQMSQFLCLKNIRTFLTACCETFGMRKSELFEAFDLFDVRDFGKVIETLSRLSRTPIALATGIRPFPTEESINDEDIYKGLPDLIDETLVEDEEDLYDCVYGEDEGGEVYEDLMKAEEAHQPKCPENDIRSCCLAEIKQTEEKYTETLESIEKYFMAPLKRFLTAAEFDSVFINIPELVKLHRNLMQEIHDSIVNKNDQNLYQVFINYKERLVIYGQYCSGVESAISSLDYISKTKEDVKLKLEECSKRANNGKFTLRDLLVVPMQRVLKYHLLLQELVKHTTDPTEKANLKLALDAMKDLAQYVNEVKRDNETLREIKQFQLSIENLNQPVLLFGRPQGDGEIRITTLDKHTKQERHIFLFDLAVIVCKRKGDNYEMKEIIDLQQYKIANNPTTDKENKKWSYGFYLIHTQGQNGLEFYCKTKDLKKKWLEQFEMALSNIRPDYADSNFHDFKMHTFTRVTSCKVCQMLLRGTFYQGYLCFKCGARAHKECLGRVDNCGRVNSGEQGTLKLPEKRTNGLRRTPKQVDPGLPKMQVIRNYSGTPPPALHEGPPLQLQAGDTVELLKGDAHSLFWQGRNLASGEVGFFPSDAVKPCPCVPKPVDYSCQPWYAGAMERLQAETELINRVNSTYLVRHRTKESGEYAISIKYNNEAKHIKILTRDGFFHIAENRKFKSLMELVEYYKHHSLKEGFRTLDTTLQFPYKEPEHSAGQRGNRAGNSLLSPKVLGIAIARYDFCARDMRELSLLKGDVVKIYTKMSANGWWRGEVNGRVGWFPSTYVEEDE

SHB = target: T7, SHB (Homo sapiens, UniProt Q15464); settings: for remaining activity at 10 µM: read-out: percent of DMSO vehicle control
T7 construct: made in house; host or cells: HEK293 (transient transfection), unpurified extract

BLNK = target: T8, BLNK (Homo sapiens, UniProt Q8WV28); settings: for remaining activity at 10 µM: read-out: percent of DMSO vehicle control
T8 construct: the DNA-tagged SH2 domain concentrations used in this study were <0.1 nM; made in house; host or cells: HEK293 (transient transfection; unpurified extract)
T8 sequence (Q8WV28 346-453 limits assumed): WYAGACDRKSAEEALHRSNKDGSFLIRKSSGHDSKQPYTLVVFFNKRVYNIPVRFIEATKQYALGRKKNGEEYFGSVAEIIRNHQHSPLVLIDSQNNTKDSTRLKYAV

GRB2 = target: T9, GRB2 (Homo sapiens, UniProt P62993); settings: for percent of DMSO vehicle control: primary screen, 10 μM
T9 construct: the DNA-tagged SH2 domain concentrations used in this study were <0.1 nM; made in house; host or cells: HEK293 (transient transfection; unpurified extract)
T9 sequence (P62993 60-152 limits assumed): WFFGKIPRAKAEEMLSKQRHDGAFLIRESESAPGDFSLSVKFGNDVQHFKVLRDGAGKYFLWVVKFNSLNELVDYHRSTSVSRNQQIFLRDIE

T5 sequence (Q9UQQ2 364-462 limits assumed): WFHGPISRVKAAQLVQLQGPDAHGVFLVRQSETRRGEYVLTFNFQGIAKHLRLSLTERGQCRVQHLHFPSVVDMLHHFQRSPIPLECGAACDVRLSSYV
T7 sequence (Q15464 whole entry): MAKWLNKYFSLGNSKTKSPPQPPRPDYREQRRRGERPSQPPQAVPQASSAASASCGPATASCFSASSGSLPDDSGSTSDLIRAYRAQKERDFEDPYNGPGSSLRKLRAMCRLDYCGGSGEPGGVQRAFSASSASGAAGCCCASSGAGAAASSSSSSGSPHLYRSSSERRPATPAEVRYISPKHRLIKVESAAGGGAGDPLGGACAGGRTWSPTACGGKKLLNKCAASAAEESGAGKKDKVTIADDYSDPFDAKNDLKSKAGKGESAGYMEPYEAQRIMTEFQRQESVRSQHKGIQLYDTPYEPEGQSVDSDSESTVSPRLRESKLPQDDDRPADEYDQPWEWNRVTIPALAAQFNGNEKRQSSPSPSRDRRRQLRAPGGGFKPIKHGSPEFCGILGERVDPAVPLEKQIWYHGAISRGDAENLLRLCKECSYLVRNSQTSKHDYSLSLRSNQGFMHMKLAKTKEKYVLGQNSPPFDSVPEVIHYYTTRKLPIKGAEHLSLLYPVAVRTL

Row | SMILES | remaining activity at 10 µM (RASA1(SH2dom.C-term.); primary screen, 10 μM) | remaining activity at 10 µM (DAPP1; primary screen, 10 μM) | remaining activity at 10 µM (TXK; primary screen, 10 μM) | remaining activity at 10 µM (PTPN6(SH2dom.N-term.); primary screen, 10 μM) | remaining activity at 10 µM (LNK (SH2B3); primary screen, 10 μM) | remaining activity at 10 µM (VAV3; primary screen, 10 μM) | remaining activity at 10 µM (SHB; primary screen, 10 μM) | remaining activity at 10 µM (BLNK; primary screen, 10 μM) | percent of DMSO vehicle control (GRB2) | remaining activity at 10 µM (RASA1(SH2dom.C-term.)) | percent of DMSO vehicle control at 10 µM (DAPP1) | remaining activity at 10 µM (TXK) | remaining activity at 10 µM (PTPN6(SH2dom.N-term.)) | remaining activity at 10 µM (LNK (SH2B3)) | percent of DMSO vehicle control at 10 µM (VAV3) | remaining activity at 10 µM (SHB) | remaining activity at 10 µM (BLNK) | other results
1 | O=C(CCl)Nc1cccc(CNC(=O)[C@H](Cc2ccc(OP(=O)(O)O)cc2)NC(=O)Cc2ccc(F)cc2)c1 [MN551] | 107% | 81.2% | 89.1% | 102% | 17.7 ± 5.5% | 113% | 102% | 101% | 103.7% | – | – | – | – | – | – | – | – | Kd (LNK (SH2B3); dose-response, read-out: KD): 3900 ± 710 nM
2 | CC[C@H](C)[C@H](NC(=O)[C@H](CCC(=O)O)NC(=O)[C@H](CCC(=O)O)NC(=O)[C@H](Cc1ccc(OP(=O)(O)O)cc1)NC(C)=O)C(=O)N[C@@H](CCC(=O)O)C(N)=O [Ac-pYEEIE-NH2] (Ac-[pY]EEIE-NH2) | – | – | – | – | – | – | – | – | 77.1% | – | – | – | – | – | – | – | – | percent of DMSO vehicle control (RASA1(SH2dom.C-term.); primary screen, 10 μM): 119.3%; percent of DMSO vehicle control (DAPP1; primary screen, 10 μM): 134.5%; percent of DMSO vehicle control (TXK; primary screen, 10 μM): 109.9%; percent of DMSO vehicle control (PTPN6(SH2dom.N-term.); primary screen, 10 μM): 163.9%; percent of DMSO vehicle control (LNK (SH2B3); primary screen, 10 μM): 72.0%; percent of DMSO vehicle control (VAV3; primary screen, 10 μM): 75.8%; percent of DMSO vehicle control (SHB; primary screen, 10 μM): 117.6%; percent of DMSO vehicle control (BLNK; primary screen, 10 μM): 118.9%
3 | CC(=O)N1CC[C@H]2CC[C@@H](C(=O)N[C@@H](CCC(N)=O)C(=O)NC(c3ccccc3)c3ccccc3)N2C(=O)[C@@H](NC(=O)c2cc3cc(C(F)(F)P(=O)(O)O)ccc3[nH]2)C1 [SI-109] | – | – | – | – | – | – | – | – | 104.9% | 118% | 149% | 118% | 123% | 81.4 ± 6.7% | 130% | 129% | 117% | –
4 | CC(=O)N[C@@H](Cc1ccc(CP(=O)(O)O)cc1)C(=O)NC1(C(=O)N[C@@H](CC(N)=O)C(=O)NCCCc2c(O)ccc3ccccc23)CCCCC1 [CGP78850] | – | – | – | – | – | – | – | – | 0.0±0.0% | 131 ± 42.7% | 136 ± 2.8% | 74.4 ± 2.5% | 112 ± 9.8% | 79.1 ± 5.6% | 21.7 ± 3.7% | 97.4 ± 9.4% | 117 ± 7.1% | Kd (VAV3): 860 nM; Kd (GRB2): 3.4 nM
5 | CC[C@H](C)[C@H](NC(=O)[C@H](CCC(=O)O)NC(=O)[C@H](CCC(=O)O)NC(=O)[C@H](Cc1ccc(OP(=O)(O)O)cc1)NC(=O)/C=C/c1ccc(O)c(O)c1)C(=O)N[C@@H](CCC(=O)O)C(=O)O [Caffeic acid-pYEEIE] (Caffeoyl-[pY]EEIE-OH) | – | – | – | – | – | – | – | – | 73.4±9.2% | 78 ± 6.4% | 39.2 ± 3.2% | 2.7 ± 0.3% | 118 ± 19.5% | 0.4 ± 0.1% | 0.4 ± 0.1% | 1.8 ± 0.1% | 3.2 ± 0.6% | Kd (TXK): 950 ± 250 nM; Kd (LNK (SH2B3)): 500 ± 410 nM; Kd (VAV3): 70 ± 12 nM; Kd (SHB): 1200 ± 530 nM; Kd (BLNK): 240 ± 24 nM
6 | NC(=O)CC[C@H](NC(=O)[C@@H]1CC[C@@H]2CCN(C(=O)CCCCCC#Cc3cccc4c3CN(C3CCC(=O)NC3=O)C4=O)C[C@H](NC(=O)c3cc4cc(C(F)(F)P(=O)(O)O)ccc4[nH]3)C(=O)N21)C(=O)NC(c1ccccc1)c1ccccc1 (some centres unmarked) [SD-36] | – | – | – | – | – | – | – | – | 92.9±1.6% | 86.6 ± 9.6% | 126% | 101 ± 9.7% | 87.3 ± 4.7% | 86.6% | 82.1 ± 3.8% | 87.7 ± 2.3% | 104% | –
7 | CC(C)(C)[C@H](NC(=O)/C=C/c1ccc(OP(=O)(O)O)cc1)C(=O)N1CCC[C@H]1C(=O)N(c1ccccc1)c1ccc(I)cc1 [STAT6-IN-3] | 123 ± 14.3% | 58.9 ± 43.2% | 85.4 ± 12.9% | 77.4 ± 15.8% | 62 ± 5.7% | 76.8 ± 21.6% | 53.4 ± 23.5% | 145 ± 22.5% | 72.4±21.8% | – | – | – | – | – | – | – | – | –
8 | C/C(=C\C(=O)N[C@H](C(=O)N1CCC[C@H]1C(=O)N(c1ccccc1)c1ccc(I)cc1)C(C)(C)C)c1ccc(OP(=O)(O)O)cc1 [STAT6-IN-1] | 76.6 ± 7.8% | 41.1 ± 13.9% | 87.1 ± 5.9% | 69.7% | 6.9 ± 3.8% | 40.3 ± 1.3% | 28.7 ± 0.4% | 116 ± 19.9% | – | – | – | – | – | – | – | – | – | Kd (LNK (SH2B3); dose-response, read-out: KD): 2300 ± 140 nM; KD (SHB; dose-response): No Hit; Kd (GRB2; dose-response, read-out: KD): 6040 ± 1400 nM
9 | O=C(COc1ccc2cc(C(=O)Nc3ccccc3)ccc2c1)NCc1ccc(OP(=O)(O)O)c(OP(=O)(O)O)c1 [Stafib-1] | 97 ± 11.7% | 100% | 144% | 27.8 ± 4.2% | 94.8 ± 14.4% | 102% | 114% | 158% | 79.5±8.8% | – | – | – | – | – | – | – | – | Kd (PTPN6(SH2dom.N-term.); dose-response, read-out: KD): 13000 nM
